Assay [1] has as its system hornerin. Briefly: Immunoblot of hornerin in HUVECs treated with growth factors. Format: cell-based, human. The note with it: 24 hours treatment; growth factors at published B-max concentrations, EGF at increasing concentrations. The procedure:
HUVECs were cultured in 10 cm dishes for 24 hours prior to a change to media containing VEGF (at B-max concentration), TCM, or VC. After 24 hours treatment, the cells were washed with DPBST two times and lysed with radioimmunoprecipitation assay (RIPA) buffer (Thermo Scientific). Lysate protein concentrations were measured by the bicinchoninic acid assay (Pierce, Waltham, MA, USA) and equivalent amounts of protein were loaded into precast 4-15% tris-glycine eXtended (TGX) polyacrylamide gels (Bio-Rad, Hercules, CA, USA). The proteins were resolved by electrophoresis and transferred to nitrocellulose membranes using the iBlot system (Invitrogen, Carlsbad, CA, USA). The membranes were then washed in Tris-buffered saline+1% Tween-20 (TBST), blocked for 30 minutes in TBST+2% milk solution, and incubated overnight at 4° C. with primary antibodies anti-hornerin (Abcam, Cambridge, UK, ab78909; (1:1000)) and anti-HSP90 (Cell Signaling Technology, Danvers, MA, USA, 4877; (1:1000)). The following day the membranes were washed and subsequently incubated with the secondary antibodies anti-goat HRP (R&D Systems, Minneapolis, MN, USA, HAF109; 1:5000) and anti-rabbit HRP (GE Healthcare, NA934V; 1:5000) for 45 minutes at RT. […]
Major constituents of TCM were determined using a Human Angiogenesis Antibody Array (Affymetrix, Santa Clara, CA, USA) per manufacturer's instructions. […]
On the technique in general: Immunoblotting shows a protein as a band on a membrane.

Assay [2] deals with tumor vascularity. Briefly: DCE-MRI and Ktrans measurement of L3.6pl tumors. As to conditions: AV-951 1.0 mg/kg once daily oral gavage; AV-951 only vs control; combination vs AV-951. Format: in vivo, mouse. The procedure: To assess the in vivo function of tumor vascularity, DCE-MRI was performed on a 7.0 T Clinscan small animal imaging system (Bruker, Ettlingen, Germany) using a 30 mm inner-diameter birdcage radiofrequency coil. Mice (N=7) were imaged prior to treating tumors with Hrnr and Scr siRNA and again 6 days after treatment. Mice treated with the VEGFR inhibitor AV-951 (N=5) were image pre-siRNA treatment and 6 days posttreatment. Mice were anesthetized with 1.25% isoflurane anesthesia, which was maintained during imaging. Respiration and ECG were monitored during imaging using an MRI-compatible system (SA Instruments, Stony Brook, NY, USA). An indwelling tail vein catheter was established for administration of the gadolinium contrast agent Gd-DTPA, which is required in DCE imaging. Mice were placed supine in the imaging system, and body temperature was maintained at 36° C.±1° C. using circulating, temperature controlled water. Tumors were localized using a spin-echo imaging sequence, and an imaging plane that transected both tumors was chosen for DCE imaging.
A dual-Gd-bolus DCE-MRI acquisition strategy (Christian et al., 2004) was employed, which uses a low dose of contrast agent to accurately acquire the undistorted Gd concentration vs. time curve in the blood pool and a higher dose of contrast agent to acquire the Gd concentration vs. time curve in the tumor with high signal-to-noise ratio, since Gd-DTPA is known to have signal saturation effects at high doses in the blood pool (Christian et al., 2004). […]

In assay [3] the test system is tumor vasculature. As to the kind of experiment: Photoacoustic microscopy of tumor vasculature. Format: in vivo, mouse. The note with it: day 12. The source says:
Using an established PAM system (Wang & Hu, 2012; Ning et al., 2015a; Ning et al., 2015b), the tumor vasculature was characterized in vivo. Two laser wavelengths, 532 and 559 nm, were used to simultaneously quantify microvascular diameter, oxygen saturation, and blood flow at the same spatial scale (Ning et al., 2015a). The applied optical energies were 100 and 75 nJ, which are below the maximum permissible exposure energy. Throughout the experiment, mice were maintained under anesthesia with 1.5% vaporized isoflurane and the body temperature was kept at 37° C. All experimental procedures were carried out in conformity with the laboratory animal protocol approved by the Animal Care and Use Committee at the University of Virginia.

Assay [4] concerns tumor vessels. Briefly: Tumor vessel parameters in L3.6pl tumor sections (CD34, ACTA2, RAVE analysis). The class given is in vivo, mouse. As to conditions: four-group combination experiment, vs control. As for the experimental part: Following completion of the treatment schedule, the mice were killed, cardiac perfused, and the tumors were excised and fixed in formalin overnight. The tumors were paraffin embedded and cut into 5 (thin) or 50 μm (thick) sections. Tumor vessel parameters were evaluated in the following number of tumors for each treatment cohort: (Scr siRNA/ctrl., N=10; Hrnr siRNA/ctrl., N=10; Scr siRNA/AV-951, N=4; Hrnr siRNA/AV-951, N=4).
Tumor sections were deparaffinized, rehydrated, heated in antigen retrieval solution (Vector), blocked for 30 minutes in blocking buffer, and incubated with anti-CD34 antibody (Abcam, ab8158, clone MEC14.7; 1:100) in blocking buffer overnight at 4° C. The sections were then incubated with goat anti-rat FITC secondary antibody (Abcam, ab6840; 1:100) in blocking buffer prior to mounting with Prolong Gold Antifade reagent (Invitrogen). Anti-actin, α-smooth muscle Cy3 antibody (Sigma, C6198, clone 1A4; 1:200) was added to the primary antibody solution if assaying for alpha-smooth muscle actin. To compare hornerin expression in vessels and tumor tissue treated with Hrnr siRNA and Scr siRNA, thin paraffin sections were deparaffinized and stained with anti-CD34 and anti-hornerin antibodies described. Images were collected using a Nikon TE 2000-E2 microscope (Nikon Instruments) equipped with a Melles Griot Argon Laser System (Melles Griot, Carlsbad, CA, USA) and a Nikon D-Eclipse C1 confocal attachment and analyzed by Measurement Tool in Image J. To measure the relative hornerin expression in tumor vessels, three vessel segments per image were isolated and their mean intensity and area were measured and recorded. A weighted mean intensity was calculated to correct for differences in selected area. To measure the relative hornerin expression in tumor tissue, the mean intensity from three square sections (75×75 pixel) of tumor tissue per image was measured and recorded.
(§1) Vessel parameters were measured using RAVE software (Seaman et al., 2011). For detection of proliferation and apoptosis, the sections were incubated with the primary antibodies anti-Ki67 (Abcam, ab15580; 1:200) or anti-cleaved caspase 3 (Cell Signaling, 9661; 1:200), respectively, overnight at 4° C. followed by incubation with anti-rabbit AF594 (Abcam, 150080; 1:200).

The test system of assay [5] is L3.6pl tumors. As to the kind of experiment: Ki67 and cleaved caspase 3 immunofluorescence in tumor sections. The class given is in vivo, mouse. The note with it: day 15 tumor sections. As for the experimental part:
as §1

Assay [6] deals with L3.6pl PDAC cells. As to the kind of experiment: Subcutaneous L3.6pl PDAC xenograft tumor volume. The class given is in vivo, mouse. As for the experimental part: A tumor sample size of four was determined by power analysis based on prior tumor xenograft studies. For our 80% power analysis, the difference between means was 200 mm^3, standard deviation was 100 mm^3, and P-value<0.05 (P<0.05). Tumors were measured at least twice weekly until their volume was >1000 mm^3, at which point animals were euthanized. Tumor size data were collected from each tumor, with the exception of one tumor in the combination treatment experiment that was identified with 90% confidence via Grubb's Outlier Test. The following number of mice in each treatment cohort was evaluated for tumor outgrowth: (Scr siRNA/ctrl., N=15; Hrnr siRNA/ctrl., N=14; Scr siRNA/AV-951, N=8; Hrnr siRNA/AV-951, N=8).
For tumor implantation, L3.6pl cells were grown under normal culture conditions for 72 hours prior to being trypsinized and enumerated. The cells were suspended in aliquots of 500,000 cells/50 μL Hanks Balanced Salt Solution (HBSS; Corning, Manassas, VA, USA) and 50 μL of Matrigel (BD Biosciences, San Jose, CA, USA) was added to each aliquot of cells prior to implantation. The cell-Matrigel slurry was injected subcutaneously into nu/nu mice on the flanks or orthotopically into the pancreas (Seaman et al., 2011). The injection site for subcutaneous tumors was monitored daily for growth and tumor volume was calculated form caliper measurements using the formula (width^2×length)/2.
The VEGFR inhibitor AV-951 (Selleck Chemicals, Houston, TX, USA) was suspended in 0.5% methocel+0.5% Tween-20 in HBSS to increase viscosity and 50 μL of 1.0 mg/kg AV-951 or VC solution was administered once daily by oral gavage (22-gauge gavage needle (Kent Scientific, Torrington, CT, USA) connected to a 1 mL syringe). […] To prepare Hrnr siRNA and Silencer Select Negative Control #1 Scr siRNA (Invitrogen; catalog number 4390844) for injection, 10 μg of hornerin or control siRNA were combined with in vivo-jetPEI transfection reagent (Polyplus, France) in solution with 5% glucose per Polyplus instructions (total volume 50 μL). After a 30 minutes incubation, the siRNA solutions were injected slowly into the center of the tumor. A second independent hornerin knockdown experiment was conducted using a pooled set of three unique mouse Hrnr siRNA duplexes (5′-[…]-3′ (SEQ ID NO: 50); 5 ‘-[…]-3’ (SEQ ID NO: 51); 5 ‘-[…]-3’ (SEQ ID NO: 52)) and Scr siRNA (Origene, Rockville, MD, USA). The reagent preparation and injection protocol were similar to that described above.

This note sets out measurements from patent US12059429B2, “Hornerin: a novel non-VEGF mediated angiogenic protein expressed in both human and mouse angiogenic endothelial cells and human pancreatic cancer cells” (University of Virginia Patent Foundation, priority 2018, dated 2024).

Take “bFGF: growth factor found in TCM, added to HUVECs at published B-max concentration”: the “hornerin expression in HUVECs” value in assay [1] is “might stimulate hornerin expression”.

As to `COc1cc2nccc(Oc3ccc(NC(=O)Nc4cc(C)on4)c(Cl)c3)c2cc1OC` [AV-951, 1-[2-chloro-4-(6,7-dimethoxyquinolin-4-yl)oxyphenyl]-3-(5-methyl-1,2-oxazol-3-yl)urea, reference compound], in assay [2], the “Ktrans values (in words)” value is “decrease”. Besides, in assay [3], the “tumor blood hemoglobin levels” value is given as “remained unchanged” and the “tumor blood oxygen saturation compared to control” value is 1.5 fold. In addition, in assay [4], the “number of vessels per field” value is reported as “fewer vessels were observed” and the vessel morphology result was “morphologically similar to control vessels”. For the same molecule, in assay [5], the “cleaved caspase 3 levels in tumors relative to control” value was “two-fold increase”. Further, the “tumor volume decrease compared to control-treated animals” value in assay [6] (day 5 post implantation, 1.0 mg/kg AV-951 once daily oral gavage) is given as 2.3 fold. Besides, the “reduction in tumor volume (discussion summary)” value in assay [6] (monotherapy or combined therapies) was “two-fold”.
